From patent US20250163104A1, “MACROCYCLIC IMMUNOMODULATORS” (priority 2021, published 2025)
Where a SMILES comes first, the peptide text is derived from it. Bridges are numbered along the chain shown (N, C = ends). [ ]: non-standard residue; d: D form. The star is where a group is joined. Bip = N[C@@H](Cc1ccc(-c2ccccc2)cc1)C(=O)O; Ala(cPent) = N[C@@H](CC1CCCC1)C(=O)O; Cha = N[C@@H](CC1CCCCC1)C(=O)O; Gly(cPr) = N[C@H](C(=O)O)C1CC1; Chg = N[C@H](C(=O)O)C1CCCCC1; Phg = N[C@H](C(=O)O)c1ccccc1; Carboxymethyl = O=C(O)C*; Nle = CCCC[C@H](N)C(=O)O; Orn = NCCC[C@H](N)C(=O)O; Dab = NCC[C@H](N)C(=O)O; Abu = CC[C@H](N)C(=O)O; Dap = NC[C@H](N)C(=O)O

Molecular target: T1, human PD-1 / PD-L1-Ig binding on Jurkat cell line over-expressing human PD-1 (Jurkat-PD-1) (Homo sapiens, UniProt Q15116)
T1 construct: expressed in transfected cells; host or cells: Jurkat
Assay: Jurkat-PD-1 Cell Binding High-Content Screening Assay (CBA)
Assay type: cell-based
Settings: Jurkat-PD-1 cells, PE-labeled PD-L1-Ig 20 nM final; read-out: Jurkat HPD1_PDL1 IC50
Outline: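 Read-out: high-content imaging of PE-tagged PD-L1-Ig bound to Jurkat cells overexpressing human PD-1, after fixation with 4% paraformaldehyde and Hoechst 33342 nuclear staining. Ligand was used at 20 nM final for 1 hour, after a 2 h compound exposure at 37° C in serum-containing DMEM.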

T1 sequence (Q15116 25-288): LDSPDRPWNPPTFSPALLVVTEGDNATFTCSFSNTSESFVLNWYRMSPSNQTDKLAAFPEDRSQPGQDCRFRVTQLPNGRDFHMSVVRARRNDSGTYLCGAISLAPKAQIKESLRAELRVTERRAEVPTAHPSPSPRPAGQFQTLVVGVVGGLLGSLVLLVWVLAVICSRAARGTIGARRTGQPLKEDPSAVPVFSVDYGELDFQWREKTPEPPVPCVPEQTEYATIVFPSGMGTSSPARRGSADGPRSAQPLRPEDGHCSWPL

With `CC[C@H](C)[C@@H]1NC(=O)[C@H](Cc2c[nH]c3ccccc23)NC(=O)[C@H](CC(=O)O)NC(=O)[C@H](Cc2ccc(OCC(=O)O)cc2)NC(=O)[C@H](CN)NC(=O)CSC[C@@H](C(=O)N[C@@H](C)C(N)=O)NC(=O)[C@H]([C@@H](C)O)NC(=O)[C@H](C(C)C)NC(=O)[C@H](CC2CCCCC2)NC(=O)[C@H](CCN)NC(=O)[C@@H](CC(C)C)NC(=O)[C@H](CCCN)NC(=O)[C@H](CCC(=O)O)NC(=O)[C@H](Cc2ccc(-c3ccccc3)cc2)NC1=O` [Compound 1717] ({CH2CO}-[Dap]Y(Carboxymethyl)DWI[Bip]E[Orn][dL][Dab][Cha]VTCA-NH2; thioether N-14) as the molecule, how does the IC50 read?
Its IC50 is 27.7 nM.

`CCCC[C@@H]1NC(=O)[C@H](Cc2c[nH]c3ccccc23)NC(=O)[C@H](CC(=O)O)NC(=O)[C@H](Cc2ccc(OCC(=O)O)cc2)NC(=O)[C@H](CN)NC(=O)CSC[C@@H](C(=O)N[C@@H](C)C(N)=O)NC(=O)[C@H]([C@@H](C)O)NC(=O)[C@H](C(C)C)NC(=O)[C@H](CC2CCCCC2)NC(=O)[C@H](CCN)NC(=O)[C@@H](CC(C)C)NC(=O)[C@H](CCCN)NC(=O)[C@H](CCC(=O)O)NC(=O)[C@H](Cc2ccc(-c3ccccc3)cc2)NC1=O` [Compound 1718] ({CH2CO}-[Dap]Y(Carboxymethyl)DW[Nle][Bip]E[Orn][dL][Dab][Cha]VTCA-NH2; thioether N-14) was tested. Which IC50 did it give?
Its IC50 is 24.2 nM.

For `CCC[C@@H]1NC(=O)[C@H](Cc2c[nH]c3ccccc23)NC(=O)[C@H](CC(=O)O)NC(=O)[C@H](Cc2ccc(OCC(=O)O)cc2)NC(=O)[C@H](CN)NC(=O)CSC[C@@H](C(=O)N[C@@H](C)C(N)=O)NC(=O)[C@H]([C@@H](C)O)NC(=O)[C@H](C(C)C)NC(=O)[C@H](CC2CCCCC2)NC(=O)[C@H](CCN)NC(=O)[C@@H](CC(C)C)NC(=O)[C@H](CCCN)NC(=O)[C@H](CCC(=O)O)NC(=O)[C@H](Cc2ccc(-c3ccccc3)cc2)NC1=O` [Compound 1719], which IC50 is on record?
Its IC50 is 21 nM.

For `CC(C)C[C@H]1NC(=O)[C@H](CCCN)NC(=O)[C@H](CCC(=O)O)NC(=O)[C@H](Cc2ccc(-c3ccccc3)cc2)NC(=O)[C@H](c2ccccc2)NC(=O)[C@H](Cc2c[nH]c3ccccc23)NC(=O)[C@H](CC(=O)O)NC(=O)[C@H](Cc2ccc(OCC(=O)O)cc2)NC(=O)[C@H](CN)NC(=O)CSC[C@@H](C(=O)N[C@@H](C)C(N)=O)NC(=O)[C@H]([C@@H](C)O)NC(=O)[C@H](C(C)C)NC(=O)[C@H](CC2CCCCC2)NC(=O)[C@H](CCN)NC1=O` [Compound 1720] ({CH2CO}-[Dap]Y(Carboxymethyl)DW[Phg][Bip]E[Orn][dL][Dab][Cha]VTCA-NH2; thioether N-14), which IC50 is on record?
The IC50 was 24 nM.

With `CC[C@@H]1NC(=O)[C@H](Cc2c[nH]c3ccccc23)NC(=O)[C@H](CC(=O)O)NC(=O)[C@H](Cc2ccc(OCC(=O)O)cc2)NC(=O)[C@H](CN)NC(=O)CSC[C@@H](C(=O)N[C@@H](C)C(N)=O)NC(=O)[C@H]([C@@H](C)O)NC(=O)[C@H](C(C)C)NC(=O)[C@H](CC2CCCCC2)NC(=O)[C@H](CCN)NC(=O)[C@@H](CC(C)C)NC(=O)[C@H](CCCN)NC(=O)[C@H]([C@@H](C)CC)NC(=O)[C@H](Cc2ccc(-c3ccccc3)cc2)NC1=O` [Compound 1721] ({CH2CO}-[Dap]Y(Carboxymethyl)DW[Abu][Bip]I[Orn][dL][Dab][Cha]VTCA-NH2; thioether N-14) as the molecule, how does the IC50 read?
The IC50 was 11.3 nM.

Which IC50 does the source give for `CC[C@H](C)[C@@H]1NC(=O)[C@H](Cc2ccc(-c3ccccc3)cc2)NC(=O)[C@H](C2CCCCC2)NC(=O)[C@H](Cc2c[nH]c3ccccc23)NC(=O)[C@H](CC(=O)O)NC(=O)[C@H](Cc2ccc(OCC(=O)O)cc2)NC(=O)[C@H](CN)NC(=O)CSC[C@@H](C(=O)N[C@@H](C)C(N)=O)NC(=O)[C@H]([C@@H](C)O)NC(=O)[C@H](C(C)C)NC(=O)[C@H](CC2CCCCC2)NC(=O)[C@H](CCN)NC(=O)[C@@H](CC(C)C)NC(=O)[C@H](CCCN)NC1=O` [Compound 1722] ({CH2CO}-[Dap]Y(Carboxymethyl)DW[Chg][Bip]I[Orn][dL][Dab][Cha]VTCA-NH2; thioether N-14) here?
Its IC50 is 27.5 nM.

With `CC[C@H](C)[C@@H]1NC(=O)[C@H](Cc2ccc(-c3ccccc3)cc2)NC(=O)[C@H](CC2CCCC2)NC(=O)[C@H](Cc2c[nH]c3ccccc23)NC(=O)[C@H](CC(=O)O)NC(=O)[C@H](Cc2ccc(OCC(=O)O)cc2)NC(=O)[C@H](CN)NC(=O)CSC[C@@H](C(=O)N[C@@H](C)C(N)=O)NC(=O)[C@H]([C@@H](C)O)NC(=O)[C@H](C(C)C)NC(=O)[C@H](CC2CCCCC2)NC(=O)[C@H](CCN)NC(=O)[C@@H](CC(C)C)NC(=O)[C@H](CCCN)NC1=O` [Compound 1723] ({CH2CO}-[Dap]Y(Carboxymethyl)DW[Ala(cPent)][Bip]I[Orn][dL][Dab][Cha]VTCA-NH2; thioether N-14) as the molecule, how does the IC50 read?
Its IC50 is 20.8 nM.

For `CC[C@H](C)[C@@H]1NC(=O)[C@H](Cc2ccc(-c3ccccc3)cc2)NC(=O)[C@H](C2CC2)NC(=O)[C@H](Cc2c[nH]c3ccccc23)NC(=O)[C@H](CC(=O)O)NC(=O)[C@H](Cc2ccc(OCC(=O)O)cc2)NC(=O)[C@H](CN)NC(=O)CSC[C@@H](C(=O)N[C@@H](C)C(N)=O)NC(=O)[C@H]([C@@H](C)O)NC(=O)[C@H](C(C)C)NC(=O)[C@H](CC2CCCCC2)NC(=O)[C@H](CCN)NC(=O)[C@@H](CC(C)C)NC(=O)[C@H](CCCN)NC1=O` [Compound 1724] ({CH2CO}-[Dap]Y(Carboxymethyl)DW[Gly(cPr)][Bip]I[Orn][dL][Dab][Cha]VTCA-NH2; thioether N-14), which IC50 is on record?
Its IC50 is 17.7 nM.

For `CC[C@H](C)[C@@H]1NC(=O)[C@H](Cc2c[nH]c3ccccc23)NC(=O)[C@H](CC(=O)O)NC(=O)[C@H](Cc2ccc(OCC(=O)O)cc2)NC(=O)[C@H](CN)NC(=O)CSC[C@@H](C(=O)N[C@@H](C)C(N)=O)NC(=O)[C@H]([C@@H](C)O)NC(=O)[C@H](C(C)C)NC(=O)[C@H](CC2CCCCC2)NC(=O)[C@H](CCN)NC(=O)[C@@H](CC(C)C)NC(=O)[C@H](CCCN)NC(=O)[C@H]([C@@H](C)CC)NC(=O)[C@H](Cc2ccc(-c3ccccc3)cc2)NC1=O` [Compound 1725] ({CH2CO}-[Dap]Y(Carboxymethyl)DWI[Bip]I[Orn][dL][Dab][Cha]VTCA-NH2; thioether N-14), which IC50 is on record?
Its IC50 is 24.7 nM.

With `CCCC[C@@H]1NC(=O)[C@H](Cc2c[nH]c3ccccc23)NC(=O)[C@H](CC(=O)O)NC(=O)[C@H](Cc2ccc(OCC(=O)O)cc2)NC(=O)[C@H](CN)NC(=O)CSC[C@@H](C(=O)N[C@@H](C)C(N)=O)NC(=O)[C@H]([C@@H](C)O)NC(=O)[C@H](C(C)C)NC(=O)[C@H](CC2CCCCC2)NC(=O)[C@H](CCN)NC(=O)[C@@H](CC(C)C)NC(=O)[C@H](CCCN)NC(=O)[C@H]([C@@H](C)CC)NC(=O)[C@H](Cc2ccc(-c3ccccc3)cc2)NC1=O` [Compound 1726] ({CH2CO}-[Dap]Y(Carboxymethyl)DW[Nle][Bip]I[Orn][dL][Dab][Cha]VTCA-NH2; thioether N-14) as the molecule, how does the IC50 read?
The IC50 was 13.1 nM.

With `CCC[C@@H]1NC(=O)[C@H](Cc2c[nH]c3ccccc23)NC(=O)[C@H](CC(=O)O)NC(=O)[C@H](Cc2ccc(OCC(=O)O)cc2)NC(=O)[C@H](CN)NC(=O)CSC[C@@H](C(=O)N[C@@H](C)C(N)=O)NC(=O)[C@H]([C@@H](C)O)NC(=O)[C@H](C(C)C)NC(=O)[C@H](CC2CCCCC2)NC(=O)[C@H](CCN)NC(=O)[C@@H](CC(C)C)NC(=O)[C@H](CCCN)NC(=O)[C@H]([C@@H](C)CC)NC(=O)[C@H](Cc2ccc(-c3ccccc3)cc2)NC1=O` [Compound 1727] as the molecule, how does the IC50 read?
The IC50 was 9.1 nM.
